According to publication PMC3057995, “Potent Anti-Tumor Effect Generated by a Novel Human Papillomavirus (HPV) Antagonist Peptide Reactivating the pRb/E2F Pathway” (PLoS ONE, 2011):

How the values were obtained:
HeLa cells = assay: Clonogenic assay, HeLa; format: cell-based; details: 16 through 160 µM, 8 days, p>0.1
Description: Cells were seeded in DMEM at 1×10^3 cells/well density in 12-well plates and allowed to attach to the substrate overnight. Thereafter, cells were treated with 0 µM, 16 µM, 32 µM, 80 µM, and 160 µM peptide in DMEM, and the medium was changed every three days. The plates were observed daily for colony formation. After 8 (for HeLa cells) or 14 (for SiHa and CaSki cells) days of treatment, the cultures were washed three times with PBS and stained with crystal violet in ethanol for 15 min. The colonies were then counted and photographed with the Alphalmager® EP image acquisition system (Alpha Innotech, Santa Clara, CA, USA).

[1] = system: NIH/3T3 embryonic fibroblast cells; assay: MTT cell viability assay, NIH 3T3; format: cell-based, mouse; details: NIH 3T3, HPV-negative; data not shown
Excerpt: HPV16-positive SiHa and CaSki cervical carcinoma cells were supplied by China Center for Type Culture Collection (CCTCC). The following cell lines used in this project were from our laboratory: HPV18-positive HeLa cervical carcinoma cells, CNE nasopharyngeal carcinoma cells, HaCat human keratinocyte cells, COS7 (African green monkey SV40-transformed kidney fibroblast cell line), 293T (human kidney epithelial cells), and NIH/3T3 mouse embryonic fibroblast cells. All cells were maintained in a humidified atmosphere of 5% CO2, Dulbecco's modified Eagle's medium (DMEM, pH 7.2), supplemented with 10% fetal calf serum (FCS).
Cell viability was determined with an MTT assay. Briefly, the cells were seeded into 96-well plates at a density of 4–5×10^3 cells/well. The cells were allowed to recover for 24 h before the medium was replaced with DMEM supplemented with peptides at different concentrations. The solvent of the peptides was set as the control. The peptide-supplemented medium was replaced daily and the respective concentrations were maintained. The cells were subjected to an MTT cell proliferation assay at different time points. The plates were incubated at 37°C for 3 h with the addition of 20 µl/well MTT (5 mg/ml). Untransformed MTT in the solution was removed by aspiration. […] The optical density of the formazan solutions was measured by microplate reader at 540 nm.

[2] = system: mutated cyclin A and E1 promoters; assay: Luciferase reporter assay, E2F-site-mutated promoters (pMCCNA-Luc, pMCCNE1-Luc), SiHa; format: cell-based; details: 80 µM, 24 h, E2F binding sites mutated
Excerpt: HPV16E7-pEYFP plasmid was constructed by sub-cloning the HPV16E7 gene into the EcoRI and BamHI sites of pEYFP-N1. The HPV16E7 gene was obtained by PCR from HPV16E7- pET28a (+) plasmid, which was maintained by our laboratory, using primers pE7N1f and pE7N1b. The pRb gene was obtained by nest PCR from HeLa cDNA using pRb1, pRb2, pRb3, pRb4 as primers. The PCR product was then inserted into the HindIII and Xho I sites of pcDNA3.1-His/V5-Topo. pA3-Luc-Cyclin D1 luciferase reporter plasmid containing the cyclin D1 promoter sequence −1745 to +134 was maintained by our laboratory. Both pCCNE1-Luc and pCCNA1-Luc were constructed by nest PCR to amplify fragments of cyclins E1 and A promoter sequences (cyclin E1: +3 to +594; cyclin A: −284 to +254) which include E2F binding sites, [47] from HeLa cDNA, respectively. Primers used in pCCNE1-Luc construction were P(CCE1), P(CCE2), P(CCE3), and P(CCE4), while primers P(CCA1), P(CCA2), P(CCA3), and P(CCA4) were used in PCCNA1-Luc construction. The PCR products were then cloned into the Kpn1 and Bgl II sites of the pGL3-enhancer (Promega, Madison, WI, USA) luciferase reporter plasmid. […]
The reporter assays were performed using Bright-Glo™ Luciferase Assay System (Promega, Madison, WI, USA) according to the manufacturer's instructions. […] Each sample was determined in triplicate. […]

[3] = system: cyclin A, E1 and D1 promoters containing E2F binding sites; assay: Luciferase reporter assay, SiHa; format: cell-based; details: 80 µM, 24 h
Description: SiHa cells were co-transfected with E2F-responsive luciferase reporter plasmids and siRNA of Rb, p130 and p107, respectively.
The cells were seeded in 12-well plate at a density of 3×10^5 cells/well. The following day, cells were transfected with SiRNA and luciferase reporter plasmids or siRNA alone, respectively, using LipofectAMINE 2000 as described in the manufacturer's protocol (Invitrogen, Carlsbad, CA, USA).
The reporter assays were performed using Bright-Glo™ Luciferase Assay System (Promega, Madison, WI, USA) according to the manufacturer's instructions. Briefly, cells were plated in 12-well plates at a density of 1.5×10^5 cells/well. The following day, cells were transfected with reporter constructs. […] Thereafter, cell lysates were collected for reporter assays. The luciferase reporter activity of each sample was normalized against the corresponding protein content prior to calculation of the fold induction value relative to the controls. Each sample was determined in triplicate. The results represent means ± SE from three experiment runs.

SACPKGLDWCGG (C&C bridged by disulfide bonds) (disulfide) [Pep-7]
colony formation (HeLa cells): not influenced
cell proliferation (MTT) [1]: negligible effect
activities of mutated promoters (pMCCNA-Luc, pMCCNE1-Luc) [2]: negligible differences from those in control groups
activities of cyclin A, E1 and D1 promoters ([3]; means ± SE, three experiments): remarkable down-regulation
influence of p130 or p107 knock-down on Pep-7 suppression of promoters ([3]; p130 or p107 siRNA): did not affect the influence of Pep-7 on these promoters
influence of pRb knock-down on Pep-7 suppression of promoters ([3]; pRb siRNA): abrogated the suppression of cyclin A, E1 and D1 promoter activities by Pep-7
